Read-outs that look alike come from different tables or passages of the source.
Experiments:
[1] = system: mice with LPS/D-GalN-induced acute hepatic failure
Procedure: (§1) The mice of the blank group and the model group were given the equivalent dose of normal saline by gavage for three consecutive days before the establishment of the model. […] Upon the third day of gavage, the mice of the blank group were given the equivalent dose of normal saline by intraperitoneal injection, and the mice of the model group and the groups with low, medium and high doses were given the LPS and the D-GalN by intraperitoneal injection. After 6 hours of modeling, blood and liver tissues were taken. Whole blood was centrifuged (4000 rmp×10 min), and then the supernatant was taken. The liver tissue was washed with normal saline, one-fourth of the large liver lobe was stored in a formalin solution, and the rest of the liver was stored in a refrigerator of −80° C.
The liver tissue was soaked in a 10% formalin solution, washed under running water, dehydrated with ethanol solutions of low to high concentrations, xylene solution, embedded with paraffin, sectioned, stained with H&E, and observed under a microscope for the pathological morphology of the liver tissue.

[2] = system: mice with LPS/D-GalN-induced acute hepatic failure; settings: treatment group administrated with the AFG
Procedure: as §1

[3] = system: mice with LPS/D-GalN-induced acute hepatic failure; settings: for Catalase (CAT) / Glutathione (GSH) / Malondialdehyde (MDA) / Superoxide dismutase (SOD): liver tissue homogenate
Procedure: as §1
The liver tissue homogenate was detected with glutathione (GSH), superoxide dismutase (SOD), malondialdehyde (MDA) and catalase (CAT) kits. The experiment followed the instructions of kits available from Nanjing Jiancheng Bioengineering Institute.
(§2) All experimental data were analyzed by a Graphpad Prism 7.0 software. Statistical analysis between the two groups was conducted by a t test. Variance analysis was conducted by Ordinary one-way ANOVA. A Multiple Comparison method was used for conducting pairwise comparison among multiple groups. When the P value was <0.05, it was considered that there was statistical difference among the data of each group.

[4] = system: mice with LPS/D-GalN-induced acute hepatic failure; remark: listed apart in the source
Procedure: as §1
The in vitro liver tissue was spread on a white paperboard, observed for the appearance of the liver tissue, and photographed.

[5] = system: mice with LPS/D-GalN-induced acute hepatic failure; settings: for Aspartate transferase (AST) / Alanine transferase (ALT): serum, 6 hours after modeling
Procedure: as §1
Plasma was taken, and determined with alanine transaminase (GPT) and aspartate transferase (GOT) kits. The experiment followed the instructions of the kits available from Nanjing Jiancheng Bioengineering Institute.
as §2

[6] = system: mice with acute hepatitis/hepatic failure caused by LPS/D-GalN; settings: through a TLR4 signaling pathway; International Immunopharmacology, 2018, 61:266-276; cited from earlier work
[7] = groups with medium and high doses of the AFG, P<0.05
[8] = AFG 25 mg/kg by gavage for 3 days before LPS/D-GalN
[9] = AFG 50 mg/kg by gavage for 3 days before LPS/D-GalN
[10] = AFG 100 mg/kg by gavage for 3 days before LPS/D-GalN
[11] = group with the high dose of the AFG, P<0.01

SMILES: N=C(N)NCCC[C@H](NCC(=O)[C@@H](O)[C@H](O[C@H]1O[C@H](CO)[C@@H](O)[C@H](O)[C@H]1O)[C@H](O)CO)C(=O)O [AFG, argininyl fructosy glucose]
- H&E stained liver sections compared with the model group ([1]; group with the high dose of the AFG): the cells had relatively complete structures
- H&E stained liver sections compared with the model group ([1]; group with the medium dose of the AFG): cellular necrosis was significantly improved
- number of apoptotic cells (TUNEL) compared with the model group [2]: significantly reduced
- level of CAT compared with the model group [3, 7]: increased significantly
- level of MDA compared with the model group [3, 7]: increased significantly
- level of SOD compared with the model group [3, 7]: increased significantly
- Catalase (CAT) [3, 8]: 34.01 ± 2.75
- Glutathione (GSH) [3, 8]: 51.91 ± 3.29
- Malondialdehyde (MDA) [3, 8]: 133.37 ± 5.38
- Superoxide dismutase (SOD) [3, 8]: 11.48 ± 1.77
- Catalase (CAT) [3, 9]: 51.66 ± 6.19
- Glutathione (GSH) [3, 9]: 67.94 ± 3.58
- Malondialdehyde (MDA) [3, 9]: 104.00 ± 3.13
- Superoxide dismutase (SOD) [3, 9]: 20.98 ± 3.72
- Catalase (CAT) [3, 10]: 61.44 ± 8.96
- Glutathione (GSH) [3, 10]: 136.00 ± 6.90
- Malondialdehyde (MDA) [3, 10]: 94.44 ± 6.87
- Superoxide dismutase (SOD) [3, 10]: 26.54 ± 2.93
- appearance of the liver, protection effect ([4]; group protected with the high dose): the protection effect was obvious
- appearance of the liver ([4]; with the increase of the protection dose): gradually tended to be of a normal state
- improvement of acute hepatic failure caused by the combination of LPS and D-GalN ([5]; AFG in the range from 50 mg/kg to 100 mg/kg, overall conclusion): can significantly improve the acute hepatic failure
- level of ALT in the serum compared with the model group [5, 11]: significantly decreased
- level of AST in the serum compared with the model group [5, 11]: significantly decreased
- Aspartate transferase (AST) ([5]; AFG 25 mg/kg by gavage for 3 days before LPS 40 μg/kg + D-GalN 700 mg/kg i.p.): 260.52 ± 5.58
- Alanine transferase (ALT) [5, 8]: 187.45 ± 3.48
- Alanine transferase (ALT) [5, 9]: 116.13 ± 3.37
- Aspartate transferase (AST) [5, 9]: 146.43 ± 0.93
- Alanine transferase (ALT) [5, 10]: 71.90 ± 5.97
- Aspartate transferase (AST) [5, 10]: 80.48 ± 5.09

SMILES: CC(C)=CCC[C@](C)(O[C@@H]1O[C@H](CO)[C@@H](O)[C@H](O)[C@H]1O)[C@H]1CC[C@]2(C)[C@@H]1[C@H](O)C[C@@H]1[C@@]3(C)CC[C@H](O)C(C)(C)[C@@H]3[C@@H](O[C@@H]3O[C@H](CO)[C@@H](O)[C@H](O)[C@H]3O)C[C@]12C [ginsenoside Rg1]
- protective role on mice with acute hepatitis/hepatic failure caused by LPS/D-GalN [6]: plays a protective role

Reference: patent US11160820B2 (Dalian Minzu University, priority 2019, dated 2021)
